Laboratory results from patent US7820172B1, “Laminin-derived multi-domain peptides” (BioSurface Engineering Technologies, Inc., priority 2006, dated 2010).
Positions of bridges follow the written chain, without caps; N, C: chain ends. Non-standard residues stand in square brackets, D forms with d. Residues, ends and D or L forms follow the SMILES beside them. Chains are numbered I, II in the order given. No end group written: not given here. Ahx = NCCCCCC(=O)O

Tests used:
RMEC cells = format: cell-based, rat; conditions: for increase in percentage cells bound on polystyrene: 0.1 μg/ml, two hours, as a percentage of uncoated controls; for cell binding to the polystyrene surface: RMEC cells, versus uncoated controls
Procedure: Cells Adhesion and Proliferation on LA2 coated surfaces. To evaluate the effects of LA2-coating on cell attachment, untreated polystyrene 96-well plates were coated with LA2 in concentration indicated in figures. In the cases of EVA films, ePTFE and titanium, the materials were placed in 48- or 96-well plate and coated with 2 μg/ml of LA2. Cell suspension in density of 1×10^6/ml was added to the wells. […] Cell number on the surface was determined using CyQuant® cell Proliferation Kit (Molecular Probes, Eugene, Oreg.). To detect cell adhesion on the titanium and ePTFE surfaces, cells were fixed with 4% buffered formalin and stained with bis-benzamide, viewed using fluorescence microscopy, and images recorded on digital media. In the cell proliferation studies, EVA films (6.5 mm diameter), similar to those used in the cell adhesion studies, were coated with 2 μg LA2/ml. The coated films were placed in untreated polystyrene 96-well plate and A7R5 cell suspension in density of 1×10^5/ml was added to the wells. After incubation of 3 hours, 3 and 7 days, the EVA films were transferred to a new 96-well plate and cell number on the film was determined using CyQuant® cell Proliferation Kit.
YIGSR is a different laminin adhesion sequence that has been used to increase cell attachment to device surfaces. […] Since cells could bind to LA2 via cell surface heparan sulfate, the heparin binding domain of LA2 was blocked by coating peptide on substrate-adsorbed heparin.

Male SD rats = experiment: Tissue integration of LA2-coated ePTFE in rat subcutaneous implant model; format: in vivo; conditions: two weeks after implant
Procedure: Tissue integration of LA2-coated material in rat implant model. Male SD rats were anesthetized using an intraperitoneal administration of ketamine (40 mg/kg) and xylazine (5 mg/kg). Excess hair was removed and sterile surgical sites were prepared on the lower back. Subcutaneous pouches, approximately 3 cm long, were made through a skin incision using a hemostat and blunt dissection. A wafer (1×1.5 cm) of porous ePTFE was introduced into a subcutaneous pouch. The pouches were positioned on the upper flanks on either side of the backbone, with one wafer coated with MD LA2 and the other wafer uncoated. After the implant, the incision was closed with stainless steel surgical clips. Animals were assigned to experiment groups randomly. Each animal received bilateral subcutaneous implants. There were 8 implant sites for each treatment. After 14 days, animals were euthanized and the ePTFE implants were surgically recovered and processed for subsequent staining with hemotoxylin and eosin.
We hypothesized that ePTFE coated with LA2 would display improved tissue integration. […] In this analysis, the depth of tissue penetration was monitored by histomorphometric methods and scored on a scale of 1-4 (in 25% increments).

cell attachment = experiment: Related cell binding assays comparing coatings (cell type not stated); format: cell-based; conditions: coating
C2C12 cells = experiment: Attachment of C2C12 cells to coated polystyrene; format: cell-based, murine
Procedure: FIG. 1. Microphotographs of C2C12 cell on LA2 polystyrene. Murine myoblast C2C12 cells were seeded on uncoated polystyrene (A), or polystyrene coated 0.05-(B), 0.2-(C), and 0.4 (D) μg/ml LA2. Three hours after cell seeding, the materials were washed with PBS and micrographs taken with phase contrast optics. Original magnification 200×.
FIG. 2. Attachment of C2C12 cells to LA2 or SIKVAV (SEQ ID NO:16) coated polystyrene. C2C12 cells were seeded on polystyrene surface coated with LA2 (A) or SIKVAV (SEQ ID NO:16) (B). Three hours after seeding, unbound cells were removed by rinsing, and relative cell number determined using a fluorescent assay as described.
Cells Adhesion and Proliferation on LA2 coated surfaces. To evaluate the effects of LA2-coating on cell attachment, untreated polystyrene 96-well plates were coated with LA2 in concentration indicated in figures. […] Cell number on the surface was determined using CyQuant® cell Proliferation Kit (Molecular Probes, Eugene, Oreg.). To detect cell adhesion on the titanium and ePTFE surfaces, cells were fixed with 4% buffered formalin and stained with bis-benzamide, viewed using fluorescence microscopy, and images recorded on digital media. […] After incubation of 3 hours, 3 and 7 days, the EVA films were transferred to a new 96-well plate and cell number on the film was determined using CyQuant® cell Proliferation Kit.

cell binding = experiment: Competitive blocking of cell binding to LA2; format: cell-based; conditions: binding not eliminated by either agent individually

Compound	increase in percentage cells bound on polystyrene (RMEC cells)	cell binding to the polystyrene surface (RMEC cells)	level of cell binding when used as competitive blocking agent (cell binding)	also measured
CC[C@H](C)[C@H](NC(=O)[C@H](CCCNC(=N)N)NC(=O)[C@H](CCC(=O)O)NC(=O)[C@H](CC(C)C)NC(=O)[C@H](CCCCN)NC(=O)[C@H](CCCNC(=N)N)NC(=O)[C@H](CCCCN)NC(=O)[C@H](CCCNC(=N)N)NC(=O)CCCCCNC(=O)CCCCCNC(=O)CCCCCNC(=O)[C@H](CCCCNC(=O)[C@H](C)NC(=O)[C@H](C)NC(=O)[C@@H](NC(=O)[C@H](C)NC(=O)[C@@H](NC(=O)[C@H](CCCCN)NC(=O)[C@@H](NC(=O)[C@@H](N)CO)[C@@H](C)CC)C(C)C)C(C)C)NC(=O)[C@H](C)NC(=O)[C@H](C)NC(=O)[C@@H](NC(=O)[C@H](C)NC(=O)[C@@H](NC(=O)[C@H](CCCCN)NC(=O)[C@@H](NC(=O)[C@@H](N)CO)[C@@H](C)CC)C(C)C)C(C)C)C(=O)N[C@@H](C)C(=O)N[C@@H](CCCNC(=N)N)C(N)=O [LA2, H-SIKVAVAAK(H-SIKVAVAA)-Ahx-Ahx-Ahx-RKRKLERIAR-NH2] (I: H-SIKVAVAAK[Ahx][Ahx][Ahx]RKRKLERIAR-NH2 / II: H-SIKVAVAA; amide I:9-II:C)	over 150%	–	–	inflammation (Male SD rats): little evidence of inflammation
H-YIGSRAAK(H-YIGSRAA)-Ahx-Ahx-Ahx-RKRKLERIAR-NH2 (chain 1 H-YIGSRAAK[Ahx][Ahx][Ahx]; also: branched: chain 2 on Lys8 side chain of chain 1, chain 1 C-terminus joined to chain 3 N-terminus via Ahx-Ahx-Ahx) [MD Peptide 2, similar multi-domain peptide containing YIGSR]	over 50%	substantially more effective than uncoated controls	–	cell attachment versus linear SIKVAV, dimerized SIKVAV and random-sequence peptides (cell attachment): more effective
SEQ ID NO:25 (KPVSLSYRAPARFFESHVA; Random sequence)	–	did not support cell binding	–	–
SEQ ID NO:26 (DTAYKDWPNLFREIR; Random sequence)	–	did not support cell binding	–	–
SIKVAV (Cellular attachment peptide sequence)	–	–	reduced the level of cell binding	coating concentration required to achieve the same levels of cell attachment (C2C12 cells; C2C12, polystyrene (FIG. 2)): 100 µg/mL; cell attachment compared to uncoated polystyrene (C2C12 cells; C2C12 cells, coated polystyrene, 3 hours): able to increase cell attachment
heparin	–	–	reduced the level of cell binding	–
